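A five-concentration, 48-hour dose response in 96-well plates underlies each endpoint, interpolated linearly between surrounding concentrations. GI50 is the concentration that inhibits growth by half.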 Calls of active or inactive are those of the source. Rule as the data show it: active = GI50 up to about 1.1 µM and inactive = higher. Bounds are passed on as bounds.

Some test systems named below: 786-0; A549; EKVX; HCC 2998; HCT-15; Hs-578T; IGROV-1; K562; MDA-MB-231; MDA-MB-435; NCI-H23; OVCAR-4; PC-3; SK-MEL-28; SK-MEL-2; SK-OV-3; T47D; UACC-257; HOP-92.
What all share (experiment): NCI-60 cell line screen, 48 h

As for `O=C1OCC(CN2CCC(n3c(=O)[nH]c4ccccc43)CC2)=C1c1ccccc1`, the GI50 was 33.4 µM (inactive) with 786-0; 30.1 µM (inactive) with A549; 25.9 µM (inactive) in the assay with EKVX; 23.8 µM (inactive) in the assay on HCC 2998; 23 µM in the assay on HCT-15; 30 µM (inactive) in the assay on Hs-578T. Besides, the GI50 in the assay with IGROV-1 is 22.2 µM (inactive); in the assay with K562 it was 14.9 µM (inactive); with MDA-MB-231 it was 26.4 µM (inactive); in the assay on MDA-MB-435, 25.3 µM (inactive); with NCI-H23, 21.2 µM (inactive); with OVCAR-4, 18.7 µM (inactive). Moreover, the GI50 in the assay with PC-3 was 19 µM (inactive); with SK-MEL-28 it was 23.4 µM (inactive); with SK-MEL-2, 19.8 µM (inactive); in the assay on SK-OV-3, 37.2 µM (inactive); with T47D it was 6.03 µM (inactive); with UACC-257 it was 23.4 µM (inactive).

For the molecule `O=C(O)CCc1ccc2c(c1)CC1(Cc3ccccc3C1)C2`, the GI50 in the assay on 786-0 is > 100 µM (inactive); with A549 it was > 100 µM (inactive); in the assay with EKVX, > 100 µM (inactive); in the assay on HCC 2998 it was > 100 µM (inactive); in the assay on HCT-15 it was above 100 µM; in the assay on HOP-92, > 100 µM (inactive). The GI50 in the assay on Hs-578T was > 100 µM (inactive); in the assay with IGROV-1, > 100 µM (inactive); in the assay on MDA-MB-231, > 100 µM (inactive); in the assay on MDA-MB-435, > 100 µM (inactive); with NCI-H23 it was > 100 µM (inactive); in the assay with OVCAR-4 it was 49.3 µM (inactive). Moreover, the GI50 with PC-3, in the assay with SK-MEL-2, with SK-OV-3, in the assay with T47D and with UACC-257 was > 100 µM (inactive) in each case.

In the case of `COc1ccc(C2=C(Cl)C(=O)N(c3ccc(OC)cc3OC)C(=O)C2(Cl)Cl)cc1`, the GI50 in the assay on 786-0 is 15.6 µM (inactive); in the assay with A549, > 100 µM (inactive); with EKVX it was 32.8 µM (inactive); in the assay on HCT-15, 14.2 µM; in the assay on HOP-92, 9.77 µM (inactive); in the assay on Hs-578T, < 0.01 µM (active). Besides, the GI50 was 18.5 µM (inactive) with IGROV-1; 19.8 µM (inactive) in the assay on K562; 7.62 µM (inactive) with MDA-MB-231; 16.9 µM (inactive) with MDA-MB-435; 15.4 µM (inactive) in the assay on NCI-H23; 14.5 µM (inactive) with OVCAR-4. Moreover, the GI50 in the assay with PC-3 was 13.2 µM (inactive); in the assay on SK-MEL-28 it was 17 µM (inactive); with SK-MEL-2 it was 20.9 µM (inactive); in the assay with SK-OV-3, 47.3 µM (inactive); in the assay on T47D, 11.8 µM (inactive); with UACC-257, 17.8 µM (inactive).

For the molecule `CC[C@]12C=CCN3CCC4(c5cc(/N=N/c6ccc([N+](=O)[O-])cc6)c(OC)cc5N(C)[C@H]4[C@@](O)(C(=O)OC)[C@@H]1OC(C)=O)[C@@H]32` (stereo not given in full), the GI50 with 786-0 is 11.8 µM (inactive); in the assay with A549, 15.3 µM (inactive); in the assay on EKVX it was 9.86 µM (inactive); with HCT-15, 13.5 µM; in the assay with HOP-92 it was 2.54 µM (inactive); in the assay with Hs-578T, 18.4 µM (inactive). Also, the GI50 in the assay with IGROV-1 was 11.9 µM (inactive); in the assay with K562, 6.32 µM (inactive); with MDA-MB-231 it was 9.59 µM (inactive); with MDA-MB-435 it was 11.7 µM (inactive); in the assay on NCI-H23, 10.5 µM (inactive); in the assay on OVCAR-4, 9.59 µM (inactive). The GI50 in the assay with PC-3 is 4.26 µM (inactive); in the assay with SK-MEL-28, 11.8 µM (inactive); in the assay with SK-MEL-2, 13 µM (inactive); in the assay with SK-OV-3, 18 µM (inactive); in the assay on T47D, 13.3 µM (inactive); with UACC-257, 14.7 µM (inactive).

Turning to `COc1ccc(C(NCCNC(c2ccc(OC)c(OC)c2)c2cc3c(cc2O)OCO3)c2cc3c(cc2O)OCO3)cc1OC` (stereo not given), the GI50 is 1.82 µM (inactive) in the assay with 786-0; 12.2 µM (inactive) in the assay with A549; 6.22 µM (inactive) with EKVX; 1.85 µM in the assay with HCT-15; 6.71 µM (inactive) with HOP-92; 3.24 µM (inactive) with Hs-578T. Also, the GI50 is 2.72 µM (inactive) in the assay on IGROV-1; 1.49 µM (inactive) in the assay with K562; 3.13 µM (inactive) with MDA-MB-231; 1.87 µM (inactive) in the assay on MDA-MB-435; 2.51 µM (inactive) with NCI-H23; 4.83 µM (inactive) with OVCAR-4. The GI50 with PC-3 is 2.47 µM (inactive); with SK-MEL-28 it was 1.62 µM (inactive); in the assay with SK-MEL-2, 6.81 µM (inactive); with SK-OV-3 it was 6.87 µM (inactive); with T47D it was 3.37 µM (inactive); in the assay with UACC-257, 4.26 µM (inactive).

For the molecule `Cc1ccc(OC2CC(n3cnc4c(=O)[nH]c(Br)nc43)OC2Oc2ccc(C)cc2)cc1` (stereo not given), the GI50 in the assay on 786-0 was 26.3 µM (inactive); with A549 it was 22.7 µM (inactive); in the assay with EKVX it was 23.8 µM (inactive); in the assay with HCC 2998 it was 24 µM (inactive); in the assay with HCT-15 it was 30.3 µM; in the assay on HOP-92 it was 22.4 µM (inactive). In addition, the GI50 with Hs-578T is 24.5 µM (inactive); in the assay with IGROV-1, 24.4 µM (inactive); in the assay with K562 it was 17.1 µM (inactive); in the assay on MDA-MB-231 it was 23 µM (inactive); with MDA-MB-435 it was 24 µM (inactive); in the assay on NCI-H23 it was 26.9 µM (inactive). In addition, the GI50 is 37 µM (inactive) in the assay on OVCAR-4; 22.6 µM (inactive) with PC-3; 26.8 µM (inactive) in the assay on SK-MEL-2; 34.5 µM (inactive) in the assay with SK-OV-3; 24.8 µM (inactive) with T47D; 25 µM (inactive) with UACC-257.

For the molecule `COC(CN(C)C(=O)C(C)NC(=O)c1ccccc1)OC` (stereo not given), the GI50 is > 100 µM (inactive) in the assay on 786-0; > 100 µM (inactive) in the assay with A549; > 100 µM (inactive) in the assay on EKVX; above 100 µM in the assay with HCT-15; > 100 µM (inactive) in the assay with HOP-92; > 100 µM (inactive) with Hs-578T. The GI50 in the assay with IGROV-1, in the assay on K562, in the assay on MDA-MB-231, with MDA-MB-435, in the assay on NCI-H23 and in the assay with OVCAR-4 was > 100 µM (inactive) throughout. The GI50 with PC-3, with SK-MEL-2, in the assay on SK-OV-3, with T47D and in the assay on UACC-257 was > 100 µM (inactive) each time.

Take `CCOc1cc(C2CC(c3ccc(NS(=O)(=O)c4cc([N+](=O)[O-])ccc4C)cc3)=NN2C(=O)c2ccccc2)ccc1O` (stereo not given): the GI50 was 23.1 µM (inactive) in the assay on 786-0; 17.8 µM (inactive) with A549; 18.7 µM (inactive) in the assay with EKVX; 12.9 µM in the assay on HCT-15; 14.8 µM (inactive) with HOP-92; 16.8 µM (inactive) with Hs-578T. Moreover, the GI50 with IGROV-1 was 10.6 µM (inactive); with K562, 18.2 µM (inactive); in the assay with MDA-MB-231 it was 17.5 µM (inactive); with MDA-MB-435, 28.1 µM (inactive); in the assay on NCI-H23, 21.5 µM (inactive); with OVCAR-4 it was 24.6 µM (inactive). The GI50 was 17.5 µM (inactive) in the assay with PC-3; 36.5 µM (inactive) in the assay with SK-MEL-28; 13.7 µM (inactive) with SK-MEL-2; 18.2 µM (inactive) in the assay with SK-OV-3; 12.1 µM (inactive) with T47D; 18.2 µM (inactive) in the assay on UACC-257.

As to `COc1ccc(CNNC(=O)c2cc[n+]([BH2-]C#N)cc2)cc1OC`, the GI50 with 786-0 was > 100 µM (inactive); with A549, > 100 µM (inactive); in the assay with EKVX, > 100 µM (inactive); with HCC 2998, > 100 µM (inactive); with HCT-15, above 100 µM; in the assay with HOP-92, > 100 µM (inactive). In addition, the GI50 in the assay with Hs-578T, in the assay with IGROV-1, in the assay with K562, in the assay on MDA-MB-231, in the assay on MDA-MB-435 and with OVCAR-4 was > 100 µM (inactive) throughout. Moreover, the GI50 in the assay on PC-3, with SK-MEL-28, in the assay with SK-MEL-2, with T47D and with UACC-257 was > 100 µM (inactive) throughout.

With `C[N+](C)(N)CCC[N+](C)(C)N`, the GI50 with 786-0 was > 100 µM (inactive); in the assay on A549, > 100 µM (inactive); in the assay on EKVX, > 100 µM (inactive); with HCT-15, above 100 µM; in the assay with HOP-92, > 100 µM (inactive); in the assay with Hs-578T, > 100 µM (inactive). The GI50 in the assay on IGROV-1, with K562, in the assay on MDA-MB-231, with MDA-MB-435, in the assay on NCI-H23 and with OVCAR-4 was > 100 µM (inactive) in each case. The GI50 in the assay with PC-3, with SK-MEL-28, with SK-MEL-2, with SK-OV-3, in the assay with T47D and in the assay with UACC-257 was > 100 µM (inactive) throughout.

Regarding `CC(C)(S)C(N)C(=O)O` (stereo not drawn) [DL-PENICILLAMINE], the GI50 with 786-0 was > 100 µM (inactive); in the assay on A549 it was > 100 µM (inactive); in the assay on EKVX, > 100 µM (inactive); with HCT-15, above 100 µM; in the assay on HOP-92 it was > 100 µM (inactive); in the assay with Hs-578T, > 100 µM (inactive). Besides, the GI50 in the assay on IGROV-1, with K562, in the assay on MDA-MB-231, in the assay with MDA-MB-435, with NCI-H23 and with OVCAR-4 was > 100 µM (inactive) in each case. Further, the GI50 in the assay on PC-3, in the assay with SK-MEL-28, with SK-MEL-2, in the assay with SK-OV-3, in the assay on T47D and in the assay with UACC-257 was > 100 µM (inactive) in each case.

Source of the values: ChEMBL document CHEMBL1201862, “PubChem BioAssay data set” (2004).
